Data as given in patent publication US10428074B2, “Pyrrole heteroaryl ring derivative and method of use thereof” (Jiangsu Hengrui Medicine Co., Ltd., priority 2011, dated 2019).

Legend:
[1] = Pharmacokinetics assay in rats, intragastric administration; type: in vivo, Sprague-Dawley (SD) rats; conditions: SD rats, 10 mg/kg
Protocol: Rats were used as test animals. […] The pharmacokinetic behavior of the compounds of the present invention was studied and evaluated in rats.
56 Healthy adult Sprague-Dawley (SD) rats, half male and half female, purchased from SINO-BRITSH SIPPR/BK LAB.
The appropriate amount of test compounds were weighed and mixed with 1.0 mL of dimethyl sulfoxide to prepare a 1.0 mg/mL suspension.
After an overnight fast, SD rats were administered intragastrically at a dose of 10.0 mg/kg and an administration volume of 10 mL/kg.
The plasma samples were stored at −20° C. The rats were fed 2 hours after administration.
Content determination of the test compounds in rat plasma after intragastrically administering at different concentrations: 50 μL of rat plasmas taken at various time points after administration were mixed with 50 μL of internal standard solution and 100 μL of methanol and mixed for 3 minutes by a vortexer. The mixture was centrifuged for 10 minutes at 13,500 rpm. 10 μL of the supernatant was taken from the plasma sample and analyzed by LC-MS/MS.

T cells = assay: Proliferation inhibition assay on T cells (PBMC, anti-CD3, IL-2); type: cell-based, human; conditions: Homo sapiens, T-cell, IL-2 10 ng/mL
Source text: The following in vitro assay is to determine the activity of the compounds of the present invention for inhibiting the proliferation of T cells.
The activity is represented by the IC50 value.
The general procedures of the assay are given as follows: first, the PBMC cell line (purchased from Shanghai Blood Center) was centrifuged, the supernatant was removed, and the cells counted. […] Then, the cells were washed 3 times, resuspended, diluted to 2×10^6/mL, and then mixed with recombinant human IL-2 (purchased from Peprotech, Catalog Number: 200-02) to a concentration of 10 ng/mL, and cultured for another 3 days. The cells were washed again 3 times, and diluted to 5×10^5/mL. 80 μL of the cells were seeded in each well of a 96-well cell culture plate. […] To he control wells, 10 μL culture medium were added. The plate was placed in an incubator. After incubating for 1 hr, negative control wells were mixed with 10 μL of culture medium, and the rest of the wells were mixed with IL-2 to a concentration of 10 ng/mL, and incubated continuously for 72 hours. […] IC50 values were calculated from the data of inhibition rates at various concentrations of the test compounds.

[2] = test system: human erythroid leukemia cell line TF-1; assay: Proliferation inhibition assay on TF-1 cells mediated by IL-4; type: cell-based; conditions: 10 ng/mL IL-4, 72 hours
Source text: The following in vitro assay is to determine the activity of the compounds of the present invention for inhibiting the proliferation of human erythroid leukemia cell line TF-1.
The activity is represented by the IC50 value, which can not only reflect the activity of a test compound for inhibiting JAK2 and JAK3 kinase, but can also reflect the selectivity of a test compound for JAK2 and JAK3 kinase.
The general procedures of the assay are given as follows: first, the TF-1 cells (purchased from ATCC, Catalog number: CRL 2003) were seeded in a 96-well cell culture plate at a suitable cell concentration (8000 cells/mL medium), and 10 ng/mL IL-4 (Invitrogen, Catalog Number: PHC0044) were added to each well. Then 10× serial concentration gradient of test compounds solutions (10000, 1000, 100, 10, 1 and 0.1 nM) were prepared, and then the 10× compound solutions prepared above were added to the 96-well cell culture plate containing IL-4. After the cell plates were cultured continuously for 72 hours, the activity of the test compounds for inhibiting the cell proliferation was determined by using a Cell Counting Kit-8 (purchased from Dojindo, Catalog Number: CK04). IC50 values were calculated from the data of the inhibition rates at various concentrations of the test compounds.

JAK3 kinase = JAK3 kinase (Homo sapiens, UniProt P52333); assay: Assay for inhibiting JAK3 kinase (in vitro kinase assay); type: biochemical; conditions: 20 μM ATP; read-out: IC50 (JAK3/Bio)
JAK3 kinase, sequence (P52333 whole entry, looked up): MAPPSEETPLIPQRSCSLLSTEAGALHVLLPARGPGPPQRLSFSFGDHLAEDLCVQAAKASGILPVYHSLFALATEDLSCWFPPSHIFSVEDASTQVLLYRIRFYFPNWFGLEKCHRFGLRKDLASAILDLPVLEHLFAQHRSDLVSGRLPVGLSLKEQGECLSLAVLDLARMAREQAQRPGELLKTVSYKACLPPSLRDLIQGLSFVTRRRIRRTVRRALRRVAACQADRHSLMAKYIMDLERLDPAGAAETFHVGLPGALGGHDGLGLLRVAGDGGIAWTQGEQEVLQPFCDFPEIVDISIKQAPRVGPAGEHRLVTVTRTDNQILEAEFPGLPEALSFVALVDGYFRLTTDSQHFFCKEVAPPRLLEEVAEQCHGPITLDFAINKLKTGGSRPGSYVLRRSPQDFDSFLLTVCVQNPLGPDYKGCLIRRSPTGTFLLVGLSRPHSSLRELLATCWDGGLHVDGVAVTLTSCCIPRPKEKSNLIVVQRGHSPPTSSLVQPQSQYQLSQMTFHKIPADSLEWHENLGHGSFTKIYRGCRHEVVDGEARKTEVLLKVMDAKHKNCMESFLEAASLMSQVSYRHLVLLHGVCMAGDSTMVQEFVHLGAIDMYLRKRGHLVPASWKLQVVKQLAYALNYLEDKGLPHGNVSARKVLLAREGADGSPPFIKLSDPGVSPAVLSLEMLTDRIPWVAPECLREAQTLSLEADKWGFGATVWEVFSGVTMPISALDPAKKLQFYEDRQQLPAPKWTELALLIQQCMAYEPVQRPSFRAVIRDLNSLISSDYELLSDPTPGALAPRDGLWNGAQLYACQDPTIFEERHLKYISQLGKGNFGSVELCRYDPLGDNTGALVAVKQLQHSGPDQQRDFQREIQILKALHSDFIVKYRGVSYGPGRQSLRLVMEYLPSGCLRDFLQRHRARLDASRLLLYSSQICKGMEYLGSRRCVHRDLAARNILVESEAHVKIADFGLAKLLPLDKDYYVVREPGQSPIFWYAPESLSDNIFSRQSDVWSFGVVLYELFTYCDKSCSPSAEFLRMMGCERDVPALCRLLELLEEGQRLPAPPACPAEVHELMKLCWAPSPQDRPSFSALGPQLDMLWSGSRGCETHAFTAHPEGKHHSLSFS
Protocol: In vitro activity of compounds of the present invention for inhibiting JAK3 kinase was determined by the following method.

JAK2 kinase = JAK2 kinase (Homo sapiens, UniProt O60674); assay: Assay for inhibiting JAK2 kinase (in vitro kinase assay); type: biochemical; conditions: 20 μM ATP; read-out: IC50 (JAK2/Bio)
JAK2 kinase, sequence (O60674 whole entry, looked up): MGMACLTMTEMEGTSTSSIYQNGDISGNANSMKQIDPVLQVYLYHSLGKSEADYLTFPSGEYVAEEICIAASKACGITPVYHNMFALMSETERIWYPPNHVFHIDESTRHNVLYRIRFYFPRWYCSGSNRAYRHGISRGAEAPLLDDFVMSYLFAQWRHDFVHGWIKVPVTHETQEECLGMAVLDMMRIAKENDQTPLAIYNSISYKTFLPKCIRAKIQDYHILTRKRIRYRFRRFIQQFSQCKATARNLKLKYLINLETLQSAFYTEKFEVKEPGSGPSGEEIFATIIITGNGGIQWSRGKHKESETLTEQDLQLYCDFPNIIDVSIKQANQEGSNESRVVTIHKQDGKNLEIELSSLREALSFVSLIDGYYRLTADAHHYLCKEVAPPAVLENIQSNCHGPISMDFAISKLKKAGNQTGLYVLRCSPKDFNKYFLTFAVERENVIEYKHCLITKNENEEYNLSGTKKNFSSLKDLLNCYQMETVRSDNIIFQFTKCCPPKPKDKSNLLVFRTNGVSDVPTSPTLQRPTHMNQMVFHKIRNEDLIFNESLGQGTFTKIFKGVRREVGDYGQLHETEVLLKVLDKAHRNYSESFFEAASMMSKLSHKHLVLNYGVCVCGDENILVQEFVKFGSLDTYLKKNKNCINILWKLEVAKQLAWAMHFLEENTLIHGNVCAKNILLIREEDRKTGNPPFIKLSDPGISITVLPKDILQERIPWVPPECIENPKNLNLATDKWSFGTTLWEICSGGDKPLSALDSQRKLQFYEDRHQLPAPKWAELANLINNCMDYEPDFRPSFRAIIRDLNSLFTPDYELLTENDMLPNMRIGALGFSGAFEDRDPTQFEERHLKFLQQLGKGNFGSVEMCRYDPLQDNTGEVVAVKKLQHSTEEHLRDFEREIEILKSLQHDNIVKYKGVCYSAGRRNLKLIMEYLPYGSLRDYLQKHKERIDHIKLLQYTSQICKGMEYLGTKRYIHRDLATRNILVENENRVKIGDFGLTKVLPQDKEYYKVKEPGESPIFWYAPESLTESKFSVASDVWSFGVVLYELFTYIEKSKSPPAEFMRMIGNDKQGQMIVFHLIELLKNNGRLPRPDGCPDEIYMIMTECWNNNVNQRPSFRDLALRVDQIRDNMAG
Protocol: In vitro activity of compounds of the present invention for inhibiting JAK2 kinase was determined by the following method.

JAK1 kinase = JAK1 kinase (Homo sapiens, UniProt P23458); assay: Assay for inhibiting JAK1 kinase (in vitro kinase assay); type: biochemical; conditions: 20 μM ATP; read-out: IC50 (JAK1/Bio)
Protocol: In vitro activity of compounds of the present invention for inhibiting JAK1 kinase was determined by the following method.
IC50 values of test compounds was calculated from the data of the test compounds in inhibiting the activity of JAK1 kinase at different concentrations.

| SMILES | IC50 (T cells; 72 h) [nM] | IC50 [2] [nM] | IC50 (T cells; 72 hours) [nM] | further results |
| --- | --- | --- | --- | --- |
| C[C@H](O)C(=O)N1C[C@H]2C[C@H](N(C)c3ncnc4[nH]ccc34)C[C@H]2C1 [Example 17, (S)-2-Hydroxy-1-((3aR,5R,6aS)-5-(methyl(7H-pyrrolo[2,3-d]pyrimidin-4-yl)amino)hexahydrocyclopenta[c]pyrrol-2(1H)-yl)propan-1-one] | 29 | 165 |  | Half-Life t½ [1]: 2.03 ± 0.82 h |
| C[C@@H](O)C(=O)N1C[C@H]2C[C@H](N(C)c3ncnc4[nH]ccc34)C[C@H]2C1 [Example 19, (R)-2-Hydroxy-1-((3aR,5S,6aS)-5-(methyl(7H-pyrrolo[2,3-d]pyrimidin-4-yl)amino)hexahydrocyclopenta[c]pyrrol-2(1H)-yl)propan-1-one] | 724 | 711 |  |  |
| COc1nsc(NC(=O)N2C[C@H]3C[C@H](N(C)c4ncnc5[nH]ccc45)C[C@H]3C2)n1 [Example 34, (3aR,5S,6aS)—N-(3-Methoxy-1,2,4-thiadiazol-5-yl)-5-(methyl(7H-pyrrolo[2,3-d]pyrimidin-4-yl)amino)hexahydrocyclopenta[c]pyrrole-2(1H)-carboxamide] | 54 | 44 |  | Half-Life t½ [1]: 2.10 ± 0.73 h |
| CN(c1ncnc2[nH]ccc12)C1C[C@@H]2CCN(C(=O)CO)C[C@@H]2C1 (stereo partly drawn) [Example 37, 2-Hydroxy-1-((4aS,7aR)-6-(methyl(7H-pyrrolo[2,3-d]pyrimidin-4-yl)amino)hexahydro-1H-cyclopenta[c]pyridin-2(3H,4H,4aH,5H,6H,7H,7aH)-yl)ethanone] |  | 123 | 453 |  |
| COc1nsc(NC(=O)N2CC[C@H]3CC(N(C)c4ncnc5[nH]ccc45)C[C@H]3C2)n1 (stereo partly drawn) [Example 38, (4aS,7aR)—N-(3-Methoxy-1,2,4-thiadiazol-5-yl)-6-(methyl(7H-pyrrolo[2,3-d]pyrimidin-4-yl)amino)hexahydro-1H-cyclopenta[c]pyridine-2(3H)-carboxamide] |  | 160 | 71 |  |
| CCc1nsc(NC(=O)N2C[C@H]3C[C@H](N(C)c4ncnc5[nH]ccc45)C[C@H]3C2)n1 [Example 48, (3aR,5S,6aS)—N-(3-Ethyl-1,2,4-thiadiazol-5-yl)-5-(methyl(7H-pyrrolo[2,3-d]pyrimidin-4-yl)amino)hexahydrocyclopenta[c]pyrrole-2(1H)-carboxamide] | 23 | 27 |  | Half-Life t½ [1]: 2.43 ± 0.75 h |
| CN(c1ncnc2[nH]ccc12)[C@@H]1C[C@@H]2CN(C(=O)Nc3nncs3)C[C@@H]2C1 [Example 73, (3aR,5R,6aS)-5-(methyl(7H-pyrrolo[2,3-d]pyrimidin-4-yl)amino)-N-(1,3,4-thiadiazol-2-yl)hexahydrocyclopenta[c] pyrrole-2(1H)-carboxamide] |  | 476 | 518 |  |
| COc1nsc(NC(=O)N2C[C@H]3C[C@@H](N(C)c4ncnc5[nH]ccc45)C[C@H]3C2)n1 [Example 74, (3aR,5R,6aS)-N-(3-methoxy-1,2,4-thiadiazol-5-yl)-5-(methyl(7H-pyrrolo[2,3-d]pyrimidin-4-yl)amino)hexahydrocyclopenta [c]pyrrole-2(1H)-carboxamide] | 68 | 546 |  |  |
| CN(c1ncnc2[nH]ccc12)[C@H]1C[C@@H]2CN(C(=O)Nc3nncs3)C[C@@H]2C1 [Example 86, (3aR,5S,6aS)-5-(methyl(7H-pyrrolo[2,3-d]pyrimidin-4-yl)amino)-N-(1,3,4-thiadiazol-2-yl)hexahydrocyclopenta[c] pyrrole-2(1H)-carboxamide] |  | 691 | 130 |  |
| CN(c1ncnc2[nH]ccc12)[C@H]1C[C@@H]2CN(C(=O)Nc3nc(OCC(C)(C)O)ns3)C[C@@H]2C1 [Example 99] | 54 |  |  | IC50 ([2]; TF-1, 72 h): 44 nM; IC50 (JAK3 kinase): 110 nM; IC50 (JAK2 kinase): 5 nM; IC50 (JAK1 kinase): 0.3 nM |
| CN(c1ccnc2[nH]ccc12)[C@H]1C[C@@H]2CN(C(=O)CO)C[C@@H]2C1 [Example 112, 2-hydroxy-1-((3aR,5S,6aS)-5-(methyl(1H-pyrrolo[2,3-b]pyridin-4-yl)amino)hexahydrocyclopenta[c]pyrrol-2(1H)-yl) ethanone] |  |  |  | IC50 (JAK1 kinase): 96 nM |
| CN(c1ncnc2[nH]cc(F)c12)[C@H]1C[C@@H]2CN(C(=O)CO)C[C@@H]2C1 [Example 128, 1-((3aR,5S,6aS)-5-((5-fluoro-7H-pyrrolo[2,3-d]pyrimidin-4-yl) (methyl)amino)hexahydrocyclopenta[c]pyrrol-2(1H)-yl)-2-hydroxyethanone] | 167 |  |  | IC50 ([2]; TF-1, 72 h): 252 nM |
